SMILES strings stand for the structures. Where only a bound is given, the exact number is not on record here.

Drawing on US11395822B2, “Methods for treating Huntington's disease” (PTC Therapeutics, Inc., priority 2017, dated 2022), this text covers IC50 for three molecules.

The experiment concerns Endogenous Huntingtin Protein. Description: Endogenous Huntingtin Protein Assay (ELISA-based MSD electrochemiluminescence). It counts as cell-based. Conditions: MSD plates coated with MW1 (expanded polyglutamine) or MAB2166 capture antibody. As to the method: Compounds of Formula (I) were tested using the Meso Scale Discovery (MSD) Assay provided in International Application No. PCT/US2016/066042, filed on Dec. 11, 2016 and claiming priority to U.S. Provisional Application U.S. 62/265,652 filed on Dec. 10, 2015, and published as International Publication No. WO 2017/100726 on Jun. 15, 2017, the entire contents of which are incorporated herein by reference.
The Endogenous Huntingtin Protein assay used in Example 1 was developed using the ELISA-based MSD electrochemiluminescence assay platform.
Endogenous Huntingtin Protein Assay
Meso Scale Discovery (MSD) 96-well or 384-well plates were coated overnight at 4° C. with MW1 (expanded polyglutamine) or MAB2166 monoclonal antibody (for capture) at a concentration of 1 μg/mL in PBS (30 μL per well). Plates were then washed three times with […] wash buffer (0.05% Tween-20 in PBS) and blocked (100 μL blocking buffer; 5% BSA in PBS) for 4-5 hours at room temperature with rotational shaking and then washed three times with wash buffer.
Samples (25 μL) were transferred to the antibody-coated MSD plate and incubated overnight at 4° C. After removal of the lysates, the plate was washed three times with wash buffer, and 25 μL of #5656S (Cell signaling; rabbit monoclonal) secondary antibody (diluted to 0.25 μg/mL in 0.05% Tween-20 in blocking buffer) was added to each well and incubated with shaking for 1 Hour at room temperature. Following incubation with the secondary antibody, the wells were rinsed with wash buffer after which 25 μL of goat anti-rabbit SULFO TAG secondary detection antibody (required aspect of the MSD system) (diluted to 0.25 μg/mL in 0.05% Tween-20 in blocking buffer) was added to each well and incubated with shaking for 1 hour at room temperature. After rinsing three times with wash buffer, 150 μL of read buffer T with surfactant (MSD) were added to each empty well, and the plate was imaged on a SI 6000 imager (MSD) according to manufacturers' instructions provided for 96- or 384-well plates.
With `Cc1cn2nc(-c3cc(=O)n4cc(N5CCN[C@H](C)C5)ccc4n3)cc(C)c2n1` [Compound 886, (R)-2-(2,8-dimethylimidazo[1,2-b]pyridazin-6-yl)-7-(3-methylpiperazin-1-yl)-4H-pyrido[1,2-a]pyrimidin-4-one], the IC50 (in general, the concentration that gives 50% inhibition) is no more than 100 nM.
Consider `Cc1cn2nc(-c3cc(=O)n4cc(N5CCNC(C)(C)C5)ccc4n3)cc(C)c2n1` [Compound 899, 2-(2,8-dimethylimidazo[1,2-b]pyridazin-6-yl)-7-(3,3-dimethylpiperazin-1-yl)-4H-pyrido[1,2-a]pyrimidin-4-one], for which the IC50 lay within 100 to 500 nM.
`Cc1cn2nc(-c3cc(=O)n4cc(N5CCNC6(CC6)C5)cc(C)c4n3)cc(C)c2n1` [Compound 905, 2-(2,8-dimethylimidazo[1,2-b]pyridazin-6-yl)-9-methyl-7-(4,7-diazaspiro[2.5]octan-7-yl)-4H-pyrido[1,2-a]pyrimidin-4-one] showed an IC50 of 1000 to 3000 nM.
